In patent publication US9556145B2, “2-pyridyloxy-4-ester orexin receptor antagonists” (MERCK SHARP & DOHME CORP., priority 2012, dated 2017) one finds IC50 data, which are given here for eleven molecules.

Assay [1] concerns the target hOX1R (Homo sapiens, UniProt O43613). In words: FLIPR Ca2+ Flux Assay, orexin-1 receptor. Type of assay: cell-based. The following applies: CHO cells expressing the receptor; agonist 70 pM Ala-6,12 orexin-A. (A change in cytosolic calcium serves as a functional read-out for many receptors and channels.)
The target of assay [2] is human orexin-2 receptor (Homo sapiens (Human), UniProt O43614). Put plainly: FLIPR Ca2+ Flux Assay, orexin-2 receptor. The format is cell-based. Conditions: CHO cells expressing the receptor; agonist 70 pM Ala-6,12 orexin-A; read-out: hOX2R FLIPR IC50. The procedure:
The utility of the compounds in accordance with the present invention as orexin receptor OX1R and/or OX2R antagonists may be readily determined without undue experimentation by methodology well known in the art, including the “FLIPR Ca^2+ Flux Assay” (Okumura et al., Biochem. Biophys. Res. Comm. 280:976-981, 2001). In a typical experiment the OX1 and OX2 receptor antagonistic activity of the compounds of the present invention was determined in accordance with the following experimental method. For intracellular calcium measurements, Chinese hamster ovary (CHO) cells expressing the rat orexin-1 receptor or the human orexin-2 receptor, are grown in Iscove's modified DMEM containing 2 mM L-glutamine, […], 1% hypoxanthine-thymidine supplement, 100 U/ml penicillin, 100 µg/ml streptomycin and 10% heat-inactivated fetal calf serum (FCS). The cells are seeded at 20,000 cells/well into Becton-Dickinson black 384-well clear bottom sterile plates coated with poly-D-lysine. All reagents were from GIBCO-Invitrogen Corp. The seeded plates are incubated overnight at 37° C. and 5% CO2. Ala-6,12 human orexin-A as the agonist is prepared as a 1 mM stock solution in 1% bovine serum albumin (BSA) and diluted in assay buffer (HBSS containing 20 mM HEPES, 0.1% BSA and 2.5 mM probenecid, pH7.4) for use in the assay at a final concentration of 70 pM. Test compounds are prepared as 10 mM stock solution in DMSO, then diluted in 384-well plates, first in DMSO, then assay buffer. On the day of the assay, cells are washed 3 times with 100 μl assay buffer and then incubated for 60 min (37° C., 5% CO2) in 60 μl assay buffer containing 1 μM Fluo-4AM ester, 0.02% pluronic acid, and 1% BSA. The dye loading solution is then aspirated and cells are washed 3 times with 100 μl assay buffer. 30 μl of that same buffer is left in each well. Within the Fluorescent Imaging Plate Reader (FLIPR, Molecular Devices), test compounds are added to the plate in a volume of 25 μl, incubated for 5 min and finally 25 μl of agonist is added. Fluorescence is measured for each well at 1 second intervals for 5 minutes and the height of each fluorescence peak is compared to the height of the fluorescence peak induced by 70 pM Ala-6,12 orexin-A with buffer in place of antagonist. For each antagonist, IC50 value (the concentration of compound needed to inhibit 50% of the agonist response) is determined. Alternatively, compound potency can be assessed by a radioligand binding assay (described in Bergman et. al. Bioorg. Med. Chem. Lett. 2008, 18, 1425-1430) in which the inhibition constant (Ki) is determined in membranes prepared from CHO cells expressing either the OX1 or OX2 receptor. The intrinsic orexin receptor antagonist activity of a compound which may be used in the present invention may be determined by these assays.

human orexin-2 receptor, sequence (O43614 whole entry): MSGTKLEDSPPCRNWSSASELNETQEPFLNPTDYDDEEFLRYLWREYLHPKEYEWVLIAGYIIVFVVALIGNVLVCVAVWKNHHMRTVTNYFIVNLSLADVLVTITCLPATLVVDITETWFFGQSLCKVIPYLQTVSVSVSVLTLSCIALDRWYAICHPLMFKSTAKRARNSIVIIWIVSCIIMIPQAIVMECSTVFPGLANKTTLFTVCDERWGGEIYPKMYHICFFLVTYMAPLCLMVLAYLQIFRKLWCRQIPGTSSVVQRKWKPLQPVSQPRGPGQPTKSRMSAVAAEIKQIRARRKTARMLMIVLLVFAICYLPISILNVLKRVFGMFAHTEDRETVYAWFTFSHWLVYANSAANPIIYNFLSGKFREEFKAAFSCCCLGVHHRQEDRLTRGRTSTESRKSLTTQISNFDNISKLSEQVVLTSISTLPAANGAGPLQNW

As usually defined, the IC50 is the point on the concentration scale where inhibition reaches its midpoint. For the molecule `COC(=O)c1cc(O[C@@H]2CC[C@@H](C)N(C(=O)c3ccccc3-n3nccn3)C2)ncc1C(F)(F)F` [Example 3, methyl 2-{[(3R,6R)-6-methyl-1-{[2-(2H-1,2,3-triazol-2-yl)phenyl]-carbonyl}piperidin-3-yl]oxy}-5-(trifluoro-methyl)pyridine-4-carboxylate], the IC50 worked out at 28 nM in assay [1] and 57 nM in assay [2].
For the molecule `COC(=O)c1cc(O[C@@H]2CC[C@@H](C)N(C(=O)c3ccccc3-n3nccn3)C2)ncc1C` [Example 11, Methyl 5-methyl-2-{[(3R,6R)-6-methyl-1-{[2-(2H-1,2,3-triazol-2-yl)phenyl]carbonyl}piperidin-3-yl]oxy}pyridine-4-carboxylate], the results for the half-maximal inhibitory concentration (IC50) in assay [1] and in assay [2] were 31 nM and 11 nM, respectively.
With `COC(=O)c1cc(C)nc(O[C@@H]2CC[C@@H](C)N(C(=O)c3ccccc3-n3nccn3)C2)c1` [Example 7, methyl 2-methyl-6-{[(3R,6R)-6-methyl-1-{[2-(2H-1,2,3-triazol-2-yl)phenyl]carbonyl}piperidin-3-yl]oxy}pyridine-4-carboxylate], the concentration for half-maximal inhibition (IC50) was found to be 1470 nM in assay [1] and 82.6 nM in assay [2].
In the same order, the values of `COC(=O)c1cc(O[C@@H]2CC[C@@H](C)N(C(=O)c3ccccc3-n3nccn3)C2)ncc1OC` [Example 10, Methyl 5-methoxy-2-{[(3R,6R)-6-methyl-1-{[2-(2H-1,2,3-triazol-2-yl)phenyl]carbonyl}piperidin-3-yl]oxy}pyridine-4-carboxylate] are 597 nM and 96 nM.
For `COC(=O)c1ccnc(O[C@@H]2CC[C@@H](C)N(C(=O)c3ccc(OC)nc3-c3ncccn3)C2)c1` [Example 12, Methyl 2-({(3R,6R)-1-[(6-methoxy-2-pyrimidin-2-ylpyridin-3-yl)carbonyl]-6-methylpiperidin-3-yl}oxy)pyridine-4-carboxylate], the results for the IC50 in assay [1] and in assay [2] were 10000 nM and 2110 nM, respectively.
On to `COC(=O)c1ccnc(O[C@@H]2CC[C@@H](C)N(C(=O)c3ccccc3-n3nccn3)C2)c1C(=O)OC` [Example 6, dimethyl 2-{[(3R,6R)-6-methyl-1-{[2-(2H-1,2,3-triazol-2-yl)phenyl]-carbonyl}-piperidin-3-yl]oxy}pyridine-3,4-dicarboxylate], for which the IC50 in assay [1] came out at 526 nM; in assay [2], 30.8 nM.
`COC(=O)c1ccnc(O[C@@H]2CC[C@@H](C)N(C(=O)c3ccccc3-n3nccn3)C2)c1F` [Example 8, methyl 3-fluoro-2-{[(3R,6R)-6-methyl-1-{[2-(2H-1,2,3-triazol-2-yl)phenyl]carbonyl}piperidin-3-yl]oxy}pyridine-4-carboxylate]: the values for the IC50 in assay [1] and in assay [2] were 1690 nM and 24.9 nM, respectively.
As to `COC(=O)c1cc(O[C@@H]2CC[C@@H](C)N(C(=O)c3ccccc3-n3nccn3)C2)ncc1Br` [Example 4, methyl 5-bromo-2-{[(3R,6R)-6-methyl-1-{[2-(2H-1,2,3-triazol-2-yl)phenyl]carbon-yl}piperidin-3-yl]oxy}pyridine-4-carboxylate], the IC50 in assay [1] was determined as 28.9 nM; in assay [2] it was 60 nM.
For `COC(=O)c1ccnc(O[C@@H]2CC[C@@H](C)N(C(=O)c3ccccc3-n3nccn3)C2)c1Cl` [Example 5, Methyl 3-chloro-2-{[(3R,6R)-6-methyl-1-{[2-(2H-1,2,3-triazol-2-yl)phenyl]carbonyl}piperidin-3-yl]oxy}pyridine-4-carboxylate], the IC50 in assay [1] came out at 953 nM; in assay [2], 11 nM.
Regarding `COC(=O)c1ccnc(O[C@@H]2CC[C@@H](C)N(C(=O)c3ccc(OC)nc3-n3nccn3)C2)c1` [Example 9, methyl 2-{[(3R,6R)-1-{[6-methoxy-2-(2H-1,2,3-triazol-2-yl)pyridin-3-yl]carbonyl}-6-methylpiperidin-3-yl]oxy}pyridine-4-carboxylate], the IC50 came out at 10000 nM in assay [1] and 406 nM in assay [2].
On to `COC(=O)c1ccnc(O[C@@H]2CC[C@@H](C)N(C(=O)c3ccccc3-n3nccn3)C2)c1` [Example 1, Methyl 2-{[(3R,6R)-6-methyl-1-{[2-(2H-1,2,3-triazol-2-yl)phenyl]carbonyl}piperidin-3-yl]oxy}pyridine-4-carboxylate], for which the IC50 in assay [1] worked out at 1400 nM; in assay [2] it was 26 nM.
